According to patent publication US20260240873A1, “USE OF C[…] THE TREATMENT OF TUBEROUS SCLEROSIS COMPLEX” (GW Research Limited, priority 2019, published 2026):

Experiments:
seizures [1] = settings: mice; after pro-convulsant drugs or an electric current; cited from earlier work
[2] = Double-blind, randomized, placebo-controlled trial: Subject/Caregiver Global Impression of Change; assay type: in vivo, human; settings: for Subject/caregiver global impression of change: Much improved, number (%) / Subject/caregiver global impression of change: Much worse, number (%) / Subject/caregiver global impression of change: No change, number (%) / Subject/caregiver global impression of change: Slightly improved, number (%) / Subject/caregiver global impression of change: Slightly worse, number (%) / Subject/caregiver global impression of change: Very much worse, number (%) / Subject/caregiver global impression of change: Very much improved, number (%): data from last visit
Protocol: (§1) The blinded phase of the study was a randomized, double-blind, parallel-group, 16-week comparison of two doses of CBD versus placebo. Patients completed a 1-week screening period and a 4-week baseline period before they were randomized to receive 25 mg/kg/day CBD, 50 mg/kg/day CBD or equivalent volumes of placebo. Randomization was stratified by age according to the following ranges: 1-6, 7-11, 12-17 years and 18+ years.
(§2) change in Caregiver Global Impression of Change (CGIC) or Subject Global Impression of Change (SGIC) score; and change in total seizures.

[3] = Double-blind, randomized, placebo-controlled trial: safety and tolerability (adverse events, ALT); assay type: in vivo, human; settings: for Patients with alanine aminotransferase (ALT) elevations >3 upper level of normal (ULN): none on placebo
Protocol: as §1
Safety and tolerability measures that were recorded included: adverse events; clinical laboratory parameters; 12-lead electrocardiogram (ECG); physical examination parameters (including height and weight); vital signs; Columbia-Suicide Severity Rating Scale (C-SSRS; 19+ years) or C-SSRS Children's (6-18 years) score, where applicable; number of inpatient hospitalizations due to epilepsy; abuse liability and effects on menstruation cycles (in females).

seizures [4] = settings: 200 mg/day pure CBD; four adult patients; cited from earlier work
TSC-associated seizures = assay: Double-blind, randomized, placebo-controlled trial: TSC-associated seizure frequency; assay type: in vivo, human; settings: for Mean number of TSC-associated seizures per 28 days, treatment period: 16-week treatment period, add-on to AEDs; for Mean number of TSC-associated seizures per 28 days, baseline period: 4-week baseline before treatment; for Reduction in TSC-associated seizures over the maintenance period: 12-week maintenance period, placebo 30%; for Patients who experienced a ≥50% reduction in seizures, number (%): placebo 17 (22.4%); for TSC-associated seizures, estimated ratio CBD/Placebo / TSC-associated seizures, percentage reduction CBD/Placebo: treatment period
Protocol: as §1
(§3) Patients began a 4-week dose escalation period, titrating up to their assigned dose, before continuing on a stable dose of blinded investigational medicinal product (IMP) for 12 weeks.
(§4) Patients were required to perform daily interactive voice response system (IVRS) telephone calls to record seizure information. They were also required to complete a paper diary daily with information about IMP and concomitant AED administration.
The primary endpoint was the change in number of TSC-associated seizures during the treatment period (maintenance and titration) compared to baseline in patients taking CBD compared with placebo.
TSC-associated seizures included: focal motor seizures without impairment of consciousness or awareness; focal seizures with impairment of consciousness or awareness; focal seizures evolving to bilateral generalized convulsive seizures and generalized seizures (tonic-clonic, tonic, clonic or atonic) that are countable.
Secondary endpoints included the number of patients considered treatment responders which was defined as those with a >50% reduction in TSC-associated seizure frequency;
Antiepileptic efficacy measures were also determined and these included: number of patients considered treatment responders defined as those with a ≥25%, ≥50%, ≥75% or 100% reduction in TSC-associated seizure frequency; number of patients experiencing a >25% worsening, −25 to +25% no change, 25-50% improvement, 50-75% improvement or >75% improvement in TSC-associated seizure frequency; change in number of TSC-associated seizure-free days; and change in number of ‘other’ seizures (absence, myoclonic, focal sensory and infantile/epileptic spasms).

seizures [5] = settings: 200 mg/day pure CBD; twelve institutionalized adult patients; open label; cited from earlier work
total seizures = assay: Double-blind, randomized, placebo-controlled trial: total seizure count; assay type: in vivo, human; settings: for Total seizure count, mean number of seizures per 28 days, treatment period: 16-week treatment period; for Total seizure count, mean number of seizures per 28 days, baseline period: baseline before treatment; for Reduction of seizures over the maintenance period (paragraph after the total seizure tables): 12-week maintenance period, placebo 30.1%
Protocol: as §1, §3, §4, §2
In addition to the TSC-associated seizures (focal motor seizures without impairment of consciousness or awareness; focal seizures with impairment of consciousness or awareness; focal seizures evolving to bilateral generalized convulsive seizures and generalized seizures (tonic-clonic, tonic, clonic or atonic) that are countable) the total seizure count was recorded in the trial.

generalized epilepsy = settings: eight adult patients with generalized epilepsy; cited from earlier work
[6] = CBD 25 mg/kg/day group (n = 75)
[7] = CBD 25 mg/kg/day, p-value 0.0009
[8] = CBD 50 mg/kg/day group (n = 73)
[9] = CBD 50 mg/kg/day, p-value 0.0018
[10] = CBD 50 mg/kg/day, treatment period, p-value 0.0018

Structure (SMILES): C=C(C)[C@@H]1CCC(C)=C[C@H]1c1c(O)cc(CCCCC)cc1O [CBD, cannabidiol]
- Prevention of seizures (seizures [1]): able to prevent seizures
- Subject/caregiver's global impression of change (conclusion) ([2]; 25 mg/kg/day group): significant efficacy
- Subject/caregiver global impression of change: Much improved, number (%) ([2]; CBD 25 mg/kg/day): 12 (18.2%)
- Subject/caregiver global impression of change: Much worse, number (%) ([2]; CBD 25 mg/kg/day): 2 (3.0%)
- Subject/caregiver global impression of change: No change, number (%) ([2]; CBD 25 mg/kg/day): 14 (21.2%)
- Subject/caregiver global impression of change: Slightly improved, number (%) ([2]; CBD 25 mg/kg/day): 23 (34.8%)
- Subject/caregiver global impression of change: Slightly worse, number (%) ([2]; CBD 25 mg/kg/day): 4 (6.1%)
- Subject/caregiver global impression of change: Very much worse, number (%) ([2]; CBD 25 mg/kg/day): 1 (1.5%)
- Subject/caregiver global impression of change: Very much improved, number (%) ([2]; CBD 25 mg/kg/day, overall p-value 0.0074): 10 (15.2%)
- Subject/caregiver global impression of change: Much improved, number (%) ([2]; CBD 50 mg/kg/day): 12 (18.2%)
- Subject/caregiver global impression of change: Much worse, number (%) ([2]; CBD 50 mg/kg/day): 3 (4.5%)
- Subject/caregiver global impression of change: No change, number (%) ([2]; CBD 50 mg/kg/day): 14 (21.2%)
- Subject/caregiver global impression of change: Slightly improved, number (%) ([2]; CBD 50 mg/kg/day): 21 (31.8%)
- Subject/caregiver global impression of change: Slightly worse, number (%) ([2]; CBD 50 mg/kg/day): 6 (9.1%)
- Subject/caregiver global impression of change: Very much worse, number (%) ([2]; CBD 50 mg/kg/day): 1 (1.5%)
- Subject/caregiver global impression of change: Very much improved, number (%) ([2]; CBD 50 mg/kg/day, overall p-value 0.0580): 9 (13.6%)
- Incidence of diarrhoea, vomiting, transaminase elevations, somnolence, and rash ([3]; 50 mg/kg/day group compared to 25 mg/kg/day group): higher in the 50 mg/kg/day group
- Treatment emergent adverse event, maximal severity Mild, number (%) ([3]; CBD 25 mg/kg/day (n = 75)): 37 (49.3%)
- Treatment emergent adverse event, maximal severity Moderate, number (%) ([3]; CBD 25 mg/kg/day (n = 75)): 26 (34.7%)
- Treatment emergent adverse event, maximal severity Severe, number (%) ([3]; CBD 25 mg/kg/day (n = 75)): 7 (9.3%)
- Patients with alanine aminotransferase (ALT) elevations >3 upper level of normal (ULN) ([3]; CBD 25 mg/kg/day): 12%
- Treatment emergent adverse event, maximal severity Mild, number (%) ([3]; CBD 50 mg/kg/day (n = 73)): 29 (39.7%)
- Treatment emergent adverse event, maximal severity Moderate, number (%) ([3]; CBD 50 mg/kg/day (n = 73)): 35 (47.9%)
- Treatment emergent adverse event, maximal severity Severe, number (%) ([3]; CBD 50 mg/kg/day (n = 73)): 9 (12.3%)
- Patients with alanine aminotransferase (ALT) elevations >3 upper level of normal (ULN) ([3]; CBD 50 mg/kg/day): 25%
- Rate of ALT elevations ([3]; patients on concomitant valproic acid and on the higher dose of CBD): higher rate of ALT elevations
- Most common adverse reactions (≥10% and greater than placebo) ([3]; patients receiving CBD, 25 or 50 mg/kg/day): somnolence; decreased appetite; diarrhoea; vomiting; transaminase elevations; pyrexia; and infections
- Seizure freedom (seizures [4]): two of the four patients became seizure free
- Patients with complete seizure freedom (100% reduction in TSC-associated seizure frequency) (TSC-associated seizures; CBD 25 mg/kg/day): 4 patients
- TSC-associated seizures, estimated ratio Treatment period/Baseline period (TSC-associated seizures; CBD 25 mg/kg/day (n = 75)): 0.514
- TSC-associated seizures, percentage reduction Treatment period/Baseline period (TSC-associated seizures; CBD 25 mg/kg/day (n = 75)): 48.6%
- Mean number of TSC-associated seizures per 28 days, treatment period (TSC-associated seizures; CBD 25 mg/kg/day (n = 75)): 26.5 per 28 days
- Mean number of TSC-associated seizures per 28 days, baseline period (TSC-associated seizures; [6]): 51.6 per 28 days
- Reduction in TSC-associated seizures over the maintenance period (TSC-associated seizures; CBD 25 mg/kg/day, p=0.0004): 55.8%
- Patients who experienced a ≥50% reduction in seizures, number (%) (TSC-associated seizures; CBD 25 mg/kg/day, p=0.0692): 27 (36.0%) patients
- TSC-associated seizures, estimated ratio CBD/Placebo (TSC-associated seizures; [7]): 0.699
- TSC-associated seizures, percentage reduction CBD/Placebo (TSC-associated seizures; [7]): 30.1%
- Patients with complete seizure freedom (100% reduction in TSC-associated seizure frequency) (TSC-associated seizures; CBD 50 mg/kg/day): 2 patients
- TSC-associated seizures, estimated ratio Treatment period/Baseline period (TSC-associated seizures; CBD 50 mg/kg/day (n = 73)): 0.525
- TSC-associated seizures, percentage reduction Treatment period/Baseline period (TSC-associated seizures; CBD 50 mg/kg/day (n = 73)): 47.5%
- Mean number of TSC-associated seizures per 28 days, treatment period (TSC-associated seizures; CBD 50 mg/kg/day (n = 73)): 34.9 per 28 days
- Mean number of TSC-associated seizures per 28 days, baseline period (TSC-associated seizures; [8]): 66.3 per 28 days
- Reduction in TSC-associated seizures over the maintenance period (TSC-associated seizures; CBD 50 mg/kg/day, p=0.0005): 55.8%
- Patients who experienced a ≥50% reduction in seizures, number (%) (TSC-associated seizures; CBD 50 mg/kg/day, p=0.0245): 29 (39.2%) patients
- TSC-associated seizures, estimated ratio CBD/Placebo (TSC-associated seizures; [9]): 0.715
- TSC-associated seizures, percentage reduction CBD/Placebo (TSC-associated seizures; [9]): 28.5%
- Number of TSC-associated seizures (conclusion) (TSC-associated seizures; both 25 and 50 mg/kg/day): significantly reduce
- Control of seizures (seizures [5]): ineffective
- Total seizures, estimated ratio Treatment period/Baseline period (total seizures; CBD 25 mg/kg/day (n = 75)): 0.519
- Total seizures, percentage reduction Treatment period/Baseline period (total seizures; CBD 25 mg/kg/day (n = 75)): 48.1%
- Total seizure count, mean number of seizures per 28 days, treatment period (total seizures; CBD 25 mg/kg/day (n = 75)): 28.0 per 28 days
- Total seizure count, mean number of seizures per 28 days, baseline period (total seizures; [6]): 53.9 per 28 days
- Reduction of seizures over the maintenance period (paragraph after the total seizure tables) (total seizures; CBD 25 mg/kg/day, p=0.0007): 55%
- Total seizures, estimated ratio CBD/Placebo (total seizures; CBD 25 mg/kg/day, treatment period, p-value 0.0013): 0.709
- Total seizures, estimated ratio Treatment period/Baseline period (total seizures; CBD 50 mg/kg/day (n = 73)): 0.524
- Total seizures, percentage reduction Treatment period/Baseline period (total seizures; CBD 50 mg/kg/day (n = 73)): 47.6%
- Total seizure count, mean number of seizures per 28 days, treatment period (total seizures; CBD 50 mg/kg/day (n = 73)): 39.6 per 28 days
- Total seizure count, mean number of seizures per 28 days, baseline period (total seizures; [8]): 75.7 per 28 days
- Reduction of seizures over the maintenance period (paragraph after the total seizure tables) (total seizures; CBD 50 mg/kg/day, p=0.0005): 55.9%
- Total seizures, estimated ratio CBD/Placebo (total seizures; [10]): 0.716
- Total seizures, percentage reduction CBD/Placebo (total seizures; [10]): 28.4%
- Total number of seizures (conclusion) (total seizures; both 25 and 50 mg/kg/day): significantly reduce
- Reduction of seizures (generalized epilepsy): marked reduction of seizures in 4 of the patients
